Laboratory results from a melting point compilation (Tetko et al.; mined from patent text by program, amines drawn as free bases though some values may be those of a salt).

Row | melting point | Structure (SMILES)
1 | 111 °C | CCOC(=O)N1CCc2nc3ccccc3c(N3CCCC3)c2CC1
2 | 118 to 120 °C | COc1cccc(NC(=O)C(C)(C)C)c1CCO
3 | 153 to 154 °C | CCCOc1nsc(NC(=O)C(C)C)c1C(N)=O
4 | 171 to 172 °C | O=C1C(=CO)Cc2c1cnn2Cc1ccccc1
5 | 220 °C | N#CCN1CCC(=C2c3ccccc3CCn3ccnc32)CC1
6 | 59 to 61 °C | CC(=O)N1CCc2c([nH]c3ccc(Cl)cc23)C1CCCN1CCN(C)CC1 (configuration not stated)
7 | 93 to 95 °C | Cc1cc(F)ccc1NC(=O)OC(C)(C)C
8 | 274 °C | O=C(Nc1cc(S(=O)(=O)N2CCC(O)C2)sc1Cl)c1cnn2c(C(F)F)cc(-c3ccc(C(F)(F)F)cc3)nc12 (racemic)
9 | 198 to 199 °C | OC[C@H](O)[C@H](O)[C@@H](O)[C@@H](O)C=NNc1ccccc1
10 | 68 to 69 °C | COCOc1ccc([N+](=O)[O-])c(C=O)c1
11 | 105 to 106 °C | COC(=O)c1cccc(-c2nnn(Cc3ccc(OC)cc3)n2)c1
12 | 204 to 206 °C | O=C(Nc1ccc2nc(CN3CCCC3)ccc2c1)C1CCN(c2ccc(Cl)cc2)CC1
13 | 120 to 123 °C | Cc1noc(C)c1S(=O)(=O)n1nnc2cc3c(cc21)OC(F)(F)O3
14 | 145 to 147 °C | CS(=O)(=O)c1ccc(-c2cccn2-c2ccc(F)cc2)cc1
15 | 193 to 195 °C | O=C1NC(=O)C(c2cn(CCCO)c3ccccc23)=C1c1ccccc1[N+](=O)[O-]
16 | 175 to 179 °C | CCOC(=O)c1nc(-c2ccc(=O)n(CC)c2)c(-c2ccccc2)nc1N
17 | 87 to 90 °C | CC(C)(C)OC(=O)n1nnc(-c2ccccc2)c1I
18 | 114 to 115 °C | CCOC(=O)C1CN(C(=O)c2cc(OC)c(OC)c(OC)c2)CCN1 (configuration not stated)
19 | 92 to 94 °C | O=C(Cc1ccccc1)c1ccc[nH]1
20 | 190 to 193 °C | Cc1cc2c(s1)Nc1ccccc1N=C2N1CCN(C)CC1
21 | > 300 °C | Cn1c2ccc(Cl)cc2c2c3ccccc3c(=O)[nH]c21
22 | 146 to 149 °C | CC(C)c1nc2c(c(-c3ccc(F)cc3)c1CO)CCCC2(C)C
23 | 188 to 189 °C | Cc1ccc2c(n1)sc1c(Cl)nnnc12
24 | 185 to 187 °C | CC(C)(C)C(=O)C(Cl)C(=O)Nc1cc(OC(=O)c2cc(C(C)(C)C)c(O)c(C(C)(C)C)c2)ccc1Cl (configuration not stated)
25 | 191 °C | CC(=O)n1ccc(O)n1

Row | melting point | Structure (SMILES)
26 | 131 to 132 °C | COc1cc(C(F)(F)F)sc1C(=O)O
27 | 120 to 121 °C | Nc1cccc(-c2ccnc3c(Br)cnn23)c1
28 | 199 to 200 °C | CCCc1ccc(OCCC(C)C)c2c(=O)cc(-c3nnn[nH]3)oc12
29 | 56 to 57 °C | CCCCCCCCCCCCCCOCC(O)CO (configuration not stated)
30 | 78 to 81 °C | O=C1C2=C(C=CCN2)CCc2ccc(F)cc21
31 | 175 to 177 °C | CCn1ccc(Nc2cc(-c3cccc(N4Cc5cc(C(C)(C)C)ccc5C4=O)c3CO)cn(C)c2=O)n1
32 | 108 to 109 °C | Cc1ccccc1-c1ccc2ccccc2c1C(=O)N(C)C
33 | 97 to 98 °C | CCOC(=O)C1=CC(OC)(OC)CCC1S(=O)(=O)Nc1ccc(F)cc1Cl (configuration not stated)
34 | 250 to 251 °C | Fc1ccc(F)c(CN2CCNc3ncc(-c4cnc(N5CCOCC5)nc4)cc32)c1Cl
35 | 210 to 211 °C | O=C(CCCCc1ccccc1)NC(C(=O)Nc1n[nH]c(=S)s1)c1ccccc1 (configuration not stated)
36 | > 270 °C | Cc1cc2c(cc1C)C(N)CC(C)(C)O2 (configuration not stated)
37 | 144 to 145 °C | CNC(=O)c1ccc2c(c1)OC(c1ccccc1)(c1ccccc1)O2
38 | 159 to 160 °C | CC(=O)ON(C)C(=O)CCc1cc(-c2ccc(Cl)cc2)n(-c2nc3c(Cl)cccc3s2)n1
39 | 120 to 123 °C | CCCc1c(OCc2cccc(C(=O)NCCCCc3cccnc3)c2)ccc(C(C)=O)c1O
40 | 132 to 134 °C | CCCC(=O)OCC(=O)C1(OC(=O)COC)CCC2C3CC(C)C4=CC(=O)C=CC4(C)C3C(O)CC21C (configuration not stated)
41 | 115 to 116 °C | COc1ccc(Cn2cnc3c(-c4ccco4)nc(C4CC4)nc32)cc1
42 | 41 to 42 °C | Cc1cc(C(C)(C)CCl)c(Cl)nn1
43 | 51.5 to 52.5 °C | CC(C)SC(C)(C)C(=O)O
44 | 216 °C | Cc1cccc(NC(=O)NCC(=O)N(c2ccccc2)c2ccccc2CC(=O)NC(C)(C)C)c1
45 | 182 to 183 °C | COCCOc1cc(N(C)S(=O)(=O)c2ccccn2)c2[nH]c(C3=NCC(CN4CCS(=O)CC4)S3)cc2c1 (configuration not stated)
46 | 257 to 260 °C | CC(=O)NC[C@H]1CN(c2ccc(C(=O)c3cnc4ncccn34)cc2)C(=O)O1
47 | 208 °C | CCCNc1ccc(C(=O)O)cc1[N+](=O)[O-]
48 | 220 °C | O=C1NC(=O)C(Cc2ccc3nc(Cc4ccc(Cl)cc4)oc3c2)S1 (configuration not stated)
49 | 34 to 35 °C | COC(=O)CCc1cnoc1-c1ccc(Cl)s1
50 | 139 to 141 °C | COC(=O)/C=C/n1cnc2c(C)cc(C)cc2c1=O

Row | melting point | Structure (SMILES)
51 | 215 °C | O=C(NC1CC1)N1CCc2[nH]cnc2C1
52 | 99 to 102 °C | C#CCN1CC(=O)N(c2ccc(Cl)cc2C)C1=S
53 | 68 to 70 °C | COc1cc(N)c(Cl)cc1C(=O)NCC1CCN(CCCCCCSc2ccccc2)CC1
54 | 210 to 212 °C | Cc1ccc2cccc(OCc3c(Cl)ccc(C(=O)NCCN4C(=O)c5ccccc5C4=O)c3Cl)c2n1
55 | 64 to 65 °C | CCCCNC(=O)c1nc2cnn(CC)c2nc1C
56 | 248 °C | O=[N+]([O-])c1ccc2c(c1)SC1=NCCCN12
57 | 52 to 53 °C | CCC(=O)c1ccc(SC)cn1
58 | 191 to 193 °C | O=C(O)C(Cc1ccc2c(c1)OCO2)Cc1ccc2c(c1)OCO2
59 | 140 to 160 °C | Cc1cccc(C(N)=O)c1Nc1nc(Nc2ccc3c(c2)N(C(C)C)C(=O)CCC3)ncc1Cl
60 | 128 to 131 °C | CCCCCCCc1ccc(C(=O)Cc2ccccc2C(=O)O)cc1
61 | 99 to 100 °C | CC(=O)Nc1ccccc1C(C)=O
62 | 101 to 103 °C | Cc1nn(C)c(N)c1C(=O)Nc1ccccc1F
63 | 65.5 to 67 °C | O=C1c2cc(CCCCOC(=O)C(F)(F)F)ccc2OCc2ccsc21
64 | 191 °C | CCN(CC)S(=O)(=O)c1ccc(N2N=C(C)C(=CNc3ccccc3OC)C2=O)cc1
65 | 202 to 205 °C | COc1ccccc1NC(=O)Nc1nc(Oc2ccc3ccccc3c2)nc(N(CCC(=O)O)Cc2ccc(C)cc2)n1
66 | 93 to 94 °C | C[C@@]1(Cn2cc([N+](=O)[O-])nc2Br)CO1
67 | 63 to 64 °C | CCSc1ccc(SCC)c(C#N)n1
68 | 109 to 113 °C | Cc1nc(-c2ccc(C#N)cc2)sc1C(=O)N[C@H](C)[C@](O)(Cn1cncn1)c1ccc(Cl)cc1Cl
69 | 155 to 160 °C | O=C(NCc1ccccc1)c1ccc2[nH]ccc2c1
70 | 135 to 137 °C | Cc1cc(C)c2cc(-c3ccccc3)c(=O)n(CCN(C)C)c2n1
71 | 204 to 207 °C | COC(=O)c1cc(N=Nc2ccc(S(=O)(=O)Nc3ccccn3)cc2)ccc1OC(C)=O
72 | 134 to 135 °C | CS(=O)c1nnc(-c2ccc3occ(-c4ccc(OC(F)(F)F)cc4)c3c2)o1 (configuration not stated)
73 | 77 to 79 °C | OCCCNC(Cn1ccnc1)c1ccc(Cl)cc1Cl (configuration not stated)
74 | 215 to 216 °C | Nc1nnc(-c2ccc3ncn(-c4cccc(OC(F)(F)F)c4)c3c2)o1
75 | 139 °C | CCCn1c(C)nn(-c2ccc(N)cc2)c1=O

Row | melting point | Structure (SMILES)
76 | 166 to 170 °C | O=C(Cl)c1c(Cl)nc2ccc(Br)cc2c1-c1ccccc1
77 | 60 to 62 °C | CCOC(=O)CN(CC(=O)OCC)C(=O)c1cc(OCCCCCCOc2ccc(-c3ccccc3)cc2)ccc1OCc1ccccc1
78 | 105 to 106 °C | CCOC(=O)COc1cc(O)c2c(=O)cc(-c3ccc(OC)c(OCC(=O)N4CCN(Cc5ccc(OC)c(OC)c5OC)CC4)c3)oc2c1
79 | 141 to 142 °C | COC(=O)C1N(c2c(C)cccc2C)C(=N)C(C)N1c1c(C)cccc1C (configuration not stated)
80 | 176 to 177 °C | Oc1ccc(-c2nn(C3CCCCC3)c3c(Cl)cccc23)cc1
81 | 175 to 176 °C | N#CCCC=NNc1ccc(CS(N)(=O)=O)cc1
82 | 272 to 273 °C | CCOC(=O)c1cc(O)c2nc(C)n(C)c2c1
83 | 105 to 106 °C | CC[C@H](C)C(OCc1ccccc1)[C@H]1[C@H]([N+](=O)[O-])[C@H](c2ccccc2)N[C@@H]1C(=O)NCCCCCC(=O)O (some centres not stated)
84 | 254 to 256 °C | O=C1NCCc2c1c1cccc3c1n2CCC3
85 | 125 to 128 °C | CC(C)(C)OC(=O)Nc1cn(-c2cccnc2)nc1Cl
86 | 137 to 139 °C | COC(=O)c1ccnc(NC(=O)C(CSC(C)=O)Cc2ccccc2)c1 (configuration not stated)
87 | 110 °C | CS(=O)C(c1ccc(Cl)cc1)c1ccc(Cl)cc1 (configuration not stated)
88 | 228 to 229 °C | O=C(CN1CCN(c2ccccc2F)CC1)Nc1ccc2c(c1NC(=O)c1ccccc1)C(=O)c1ccccc1C2=O
89 | 135 to 138 °C | CSc1nccc(-c2ccc(NC(=O)c3cc(F)cc(N4CCOCC4)c3)c3ccccc23)n1
90 | 162 to 166 °C | COC(OC)(c1ccncc1)C(NC(=O)NCCCc1ccccc1)c1ccc(F)cc1 (configuration not stated)
91 | 146 to 147 °C | Oc1cccc(C#CC=Cc2cccc(O)c2)c1
92 | 154 °C | CN(C)C=Nc1ccc(-c2ccc(C(F)(F)F)cc2)cn1
93 | 210 °C | O=C(O)Cc1ccc(C(=O)c2ccc(Cl)cc2)[nH]1
94 | 81.1 to 82.2 °C | CC(C)(C)OC(=O)CCOCCCc1ccnc(-c2nc(=O)c3ccccc3s2)c1
95 | 178 to 179 °C | Nc1nc(/C(=N/OCC(=O)N2CCCCCC2)C(=O)O)cs1
96 | 140 °C | O=C(Nc1cccc(Oc2ccc(Cl)cc2)c1)c1ccn2c1CSC2c1cccnc1 (configuration not stated)
97 | 63 to 67 °C | CCOC(=S)CC/C(C)=C/Cc1c(O)c2c(c(C)c1OC)COC2=O
98 | 226 to 233 °C | CC(=O)Nc1ccc(SC2SCC(O)C(O)C2O)cc1 (configuration not stated)
99 | 178 to 180 °C | COC(=O)c1cc2cc(Cl)c(Cl)cc2nc1Cl

Row | Structure (SMILES) | melting point
100 | CN(C(=O)C1CC1)c1cccc(-c2ccnc3c(C(=O)c4ccccc4)cnn23)c1 | 168 to 170 °C
101 | Cc1nnc2n1-c1ccc(Cl)cc1N(c1ccccc1)C(=O)C2 | 297 to 298 °C
102 | CC(C)(C)OOC(C)(CCC(=O)N(N)C(=O)OCCOCCOC(=O)N(N)C(=O)CCC(C)(OOC(C)(C)C)OOC(C)(C)C)OOC(C)(C)C | 45 to 50 °C
